What was measured:
Assay type in all cases: in vivo
Conditions in all cases: mean of three results
[1] = system: BRSNS=Brassica napus; experiment: Drought stress test on crop plants in the greenhouse, spray application, Brassica napus
Description: (§1) Seeds of monocotyledonous and dicotyledonous crop plants were placed in sandy loam in wood-fiber pots, covered with soil and cultivated in a greenhouse under good growth conditions. The test plants were treated at the early leaf stage (BBCH10 BBCH13). To ensure uniform water supply before commencement of stress, the potted plants were supplied with the maximum amount of water immediately beforehand by dam irrigation and, after application, transferred in plastic inserts in order to prevent subsequent, excessively rapid drying. The inventive compounds, formulated in the form of wettable powders (WP), wettable granules (WG), suspension concentrates (SC) or emulsion concentrates (EC), were sprayed onto the green parts of the plants as an aqueous suspension at an equivalent water application rate of 600 l/ha with addition of 0.2% wetting agent (agrotin). Substance application is followed immediately by stress treatment of the plants (cold or drought stress). For cold stress treatment, the plants were kept under the following controlled conditions:
(§2) Drought stress was induced by gradual drying out under the following conditions:
(§3) “day”: 14 hours with illumination at 26° C.
(§4) “night”: 10 hours without illumination at 18° C.
(§5) The duration of the respective stress phases was guided mainly by the state of the untreated, stressed control plants and thus varied from crop to crop. It was ended (by re-irrigating or transferring it to a greenhouse with good growth conditions) as soon as irreversible damage was observed on the untreated, stressed control plants. In the case of dicotyledonous crops, for example oilseed rape and soybeans, the duration of the drought stress phase varied between 3 and 5 days, in the case of monocotyledonous crops, for example wheat, barley or corn, between 6 and 10 days. The duration of the cold stress phase varied between 12 and 14 days. The end of the stress phase was followed by an approx. 5-7-day recovery phase, during which the plants were once again kept under good growth conditions in a greenhouse. In order to rule out any influence of the effects observed by any fungicidal action of the test compounds, it is additionally ensured that the tests proceed without fungal infection and without infection pressure.
(§6) After the recovery phase had ended, the intensities of damage were rated in visual comparison to untreated, unstressed controls of the same age (in the case of drought stress) or the same growth stage (in the case of cold stress). The intensity of damage was first assessed as a percentage (100%=plants have died, 0%=like control plants). These values were then used to calculate the efficacy of the test compounds (=percentage reduction in the intensity of damage as a result of substance application) by the following formula: […]
(§7) DVus: damage value of the untreated, stressed control
(§8) DVts: damage value of the plants treated with test compound
(§9) The tables below list mean values in each case from three results of the same test.

[2] = system: ZEAMX=Zea mays; experiment: Drought stress test on crop plants in the greenhouse, spray application, Zea mays
Description: as §1, §2, §3, §4, §5, §6, §7, §8, §9

[3] = system: TRZAS=Triticum aestivum; experiment: Drought stress test on crop plants in the greenhouse, spray application, Triticum aestivum
Description: as §1, §2, §3, §4, §5, §6, §7, §8, §9

| SMILES | EF (BRSNS): Efficacy = percentage reduction in the intensity of damage ([1]; dosage 250 g/ha) | EF (TRZAS) Efficacy ([3]; dosage 250 g/ha) | EF (TRZAS) Efficacy ([3]; dosage 25 g/ha) | other results |
| --- | --- | --- | --- | --- |
| CC(C)CC(C)(C#N)NS(=O)(=O)c1ccc(Br)cc1 (centres unmarked) [I.1-14] | – | – | – | EF (BRSNS): Efficacy = percentage reduction in the intensity of damage ([1]; dosage 25 g/ha): >5%; EF (ZEAMX): Efficacy = percentage reduction in the intensity of damage ([2]; dosage 250 g/ha): >5% |
| CCOC(=O)CC(NS(=O)(=O)c1ccc(Br)cc1)C(C)C (centres unmarked) [I.1-28] | – | – | – | EF (BRSNS): Efficacy = percentage reduction in the intensity of damage ([1]; dosage 2.5 g/ha): >5% |
| COC(=O)CC(NS(=O)(=O)c1ccc(Br)cc1)C(C)C (centres unmarked) [I.1-29, Methyl 3-{[(4-bromophenyl)sulfonyl]amino}-4-methylpentanoate] | >5% | – | – | EF (ZEAMX): Efficacy = percentage reduction in the intensity of damage ([2]; dosage 250 g/ha): >5% |
| CCOC(=O)CC(NS(=O)(=O)c1ccc(Br)cc1)c1ccccc1Cl (centres unmarked) [I.1-33] | – | >5% | – | EF (BRSNS): Efficacy = percentage reduction in the intensity of damage ([1]; dosage 25 g/ha): >5% |
| COC(=O)CC(NS(=O)(=O)c1ccc(Br)cc1)c1ccc(Br)cc1 (centres unmarked) [I.1-35] | – | – | >5% | EF (BRSNS): Efficacy = percentage reduction in the intensity of damage ([1]; dosage 2.5 g/ha): >5% |
| COC(=O)CC(NS(=O)(=O)c1ccc(Br)cc1)C(=O)OC (centres unmarked) [I.1-63] | >5% | – | >5% | – |
| COC(=O)C(CC(C)C)NS(=O)(=O)c1ccc(Br)cc1 (centres unmarked) [I.1-77] | >5% | – | – | – |
| CCOC(=O)CC(NS(=O)(=O)c1ccc(Br)cc1)C(F)(F)F (centres unmarked) [I.1-103] | >5% | – | >5% | – |
| CCOC(=O)CC(CC(C)C)NS(=O)(=O)c1cccc2ccccc12 (centres unmarked) [I.2-62] | – | >5% | – | EF (ZEAMX): Efficacy = percentage reduction in the intensity of damage ([2]; dosage 25 g/ha): >5% |
| COC(=O)C(Cc1cn(C)cn1)NS(=O)(=O)c1cccc2ccccc12 (centres unmarked) [I.2-74] | >5% | – | >5% | – |
| COC(=O)C(NS(=O)(=O)c1cccc2ccccc12)C(C)C (centres unmarked) [I.2-75] | – | – | >5% | EF (BRSNS): Efficacy = percentage reduction in the intensity of damage ([1]; dosage 25 g/ha): >5%; EF (ZEAMX): Efficacy = percentage reduction in the intensity of damage ([2]; dosage 250 g/ha): >5% |
| COC(=O)C(CC(C)C)NS(=O)(=O)c1cccc2ccccc12 (centres unmarked) [I.2-77] | – | >5% | – | EF (BRSNS): Efficacy = percentage reduction in the intensity of damage ([1]; dosage 2.5 g/ha): >5% |
| C#CCC(NS(=O)(=O)c1cccc2ccccc12)C(=O)OC (centres unmarked) [I.2-86] | >5% | >5% | – | – |
| CCOC(=O)CC(NS(=O)(=O)c1ccc(Br)c2ccccc12)C(C)C (centres unmarked) [I.3-28] | >5% | >5% | – | – |
| CC(C)(C)OC(=O)CCCNS(=O)(=O)c1ccc(Br)c2ccccc12 [I.3-70] | – | – | – | EF (BRSNS): Efficacy = percentage reduction in the intensity of damage ([1]; dosage 2.5 g/ha): >5% |
| COC(=O)C(NS(=O)(=O)c1ccc(Br)c2ccccc12)C(C)C (centres unmarked) [I.3-75] | >5% | – | >5% | – |
| COC(=O)C(Cc1ccc(F)cc1)NS(=O)(=O)c1ccc(Br)c2ccccc12 (centres unmarked) [I.3-90] | – | – | >5% | EF (BRSNS): Efficacy = percentage reduction in the intensity of damage ([1]; dosage 25 g/ha): >5% |
| CCOC(=O)CC(NS(=O)(=O)c1ccc(Br)c2ccccc12)C(F)(F)F (centres unmarked) [I.3-103] | – | – | >5% | EF (BRSNS): Efficacy = percentage reduction in the intensity of damage ([1]; dosage 25 g/ha): >5% |
| COC(=O)C(Cc1c[nH]cn1)NS(=O)(=O)c1ccc(Br)c2ccccc12 (centres unmarked) [I.3-106] | – | >5% | – | EF (BRSNS): Efficacy = percentage reduction in the intensity of damage ([1]; dosage 25 g/ha): >5% |
| CCOC(=O)CC(NS(=O)(=O)c1ccc(OC)cc1)C(C)C (centres unmarked) [I.37-28] | >5% | >5% | – | – |
| CCCC(NS(=O)(=O)c1ccc(OC)cc1)C(=O)OC (centres unmarked) [I.37-73] | – | >5% | – | EF (BRSNS): Efficacy = percentage reduction in the intensity of damage ([1]; dosage 25 g/ha): >5% |
| COC(=O)C(NS(=O)(=O)c1ccc(OC)cc1)C(C)C (centres unmarked) [I.37-75] | >5% | – | – | – |
| COC(=O)C(Cc1cccnc1)NS(=O)(=O)c1ccc(OC)cc1 (centres unmarked) [I.37-82] | >5% | – | >5% | – |
| C#CCC(NS(=O)(=O)c1ccc(OC)cc1)C(=O)OC (centres unmarked) [I.37-86] | – | >5% | – | EF (ZEAMX): Efficacy = percentage reduction in the intensity of damage ([2]; dosage 250 g/ha): >5% |
| COC(=O)C(Cc1ccc(F)cc1)NS(=O)(=O)c1ccc(OC)cc1 (centres unmarked) [I.37-90] | >5% | – | – | EF (ZEAMX): Efficacy = percentage reduction in the intensity of damage ([2]; dosage 25 g/ha): >5% |
| COC(=O)C(COC(C)(C)C)NS(=O)(=O)c1ccc(OC)cc1 (centres unmarked) [I.37-91] | >5% | – | – | EF (ZEAMX): Efficacy = percentage reduction in the intensity of damage ([2]; dosage 25 g/ha): >5% |
| CCOC(=O)CC(NS(=O)(=O)c1c(C)cccc1C)C(C)C (centres unmarked) [I.52-28] | – | – | – | EF (BRSNS): Efficacy = percentage reduction in the intensity of damage ([1]; dosage 25 g/ha): >5% |

From patent publication US20140011682A1, “USE OF OPEN-CHAIN CARBOXYLIC ACIDS, CARBONIC ESTERS, CARBOXAMIDES AND CARBONITRILES OF ARYL, HETEROARYL AND BENZYLSULFONAMIDE OR THE SALTS THEREOF FOR IMPROVING THE STRESS TOLERANCE IN PLANTS” (BAYER INTELLECTUAL PROPERTY GMBH, priority 2010, published 2014)
